Test results published in PubChem BioAssay (NCI).
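Briefly, cells in 96-well plates were exposed to five compound concentrations for 48 h, and endpoints were estimated by linear interpolation. The concentration for full growth arrest is given as TGI.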

Assays:
Assay in all cases: NCI tumour cell line growth inhibition, 48 h
[1] = tested on: KM20L2 colon
[2] = tested on: SK-MEL-28 melanoma
[3] = tested on: ACHN renal
[4] = tested on: SK-OV-3 ovarian
[5] = tested on: UACC-257 melanoma
[6] = tested on: SNB-19 CNS
[7] = tested on: HCT-15 colon
[8] = tested on: NCI-H522 lung
[9] = tested on: MDA-MB-435
[10] = tested on: SR leukemia
[11] = tested on: SNB-78 CNS
[12] = tested on: HCC-2998 colon
[13] = tested on: OVCAR-8 ovarian
[14] = tested on: CCRF-CEM leukemia
[15] = tested on: MCF7 breast
[16] = tested on: 786-0 renal
[17] = tested on: U251 CNS
[18] = tested on: MOLT-4 leukemia
[19] = tested on: CAKI-1 renal
[20] = tested on: OVCAR-5 ovarian
[21] = tested on: P388 leukemia
[22] = tested on: SF-295 CNS
[23] = tested on: T-47D breast
[24] = tested on: SF-268 CNS
[25] = tested on: OVCAR-4 ovarian
[26] = tested on: SNB-75 CNS
[27] = tested on: DMS 273 small cell lung
[28] = tested on: SK-MEL-2 melanoma
[29] = tested on: NCI-H226 lung
[30] = tested on: MDA-MB-231 breast
[31] = tested on: DU-145 prostate
[32] = tested on: NCI/ADR-RES ovarian
[33] = tested on: SN12C renal
[34] = tested on: NCI-H460 lung
[35] = tested on: RPMI-8226 leukemia
[36] = tested on: HL-60(TB) leukemia
[37] = tested on: EKVX NSCLC
[38] = tested on: COLO 205 colon
[39] = tested on: RXF 393 renal
[40] = tested on: HOP-62 NSCLC
[41] = tested on: NCI-H23 lung
[42] = tested on: M19-MEL melanoma
[43] = tested on: SW-620 colon
[44] = tested on: IGROV1 ovarian
[45] = tested on: BT-549 breast
[46] = tested on: OVCAR-3 ovarian
[47] = tested on: SN12K1 renal
[48] = tested on: LXFL 529 NSCLC
[49] = tested on: KM12 colon
[50] = tested on: DLD-1 colon
[51] = tested on: SK-MEL-5 melanoma
[52] = tested on: DMS 114 small cell lung
[53] = tested on: RXF-631 renal
[54] = tested on: MALME-3M melanoma
[55] = tested on: HOP-92 NSCLC
[56] = tested on: M14 melanoma
[57] = tested on: HOP-18 NSCLC
[58] = tested on: A549 NSCLC
[59] = tested on: K-562 leukemia
[60] = tested on: HCT-116 colon
[61] = tested on: A498 renal
[62] = tested on: HT29 colon
[63] = tested on: UACC-62 melanoma
[64] = tested on: PC-3 prostate
[65] = tested on: UO-31 renal
[66] = tested on: SF-539 CNS
[67] = tested on: TK-10 renal
[68] = tested on: LOX IMVI melanoma
[69] = tested on: HS 578T breast
[70] = tested on: MDA-N
[71] = tested on: P388/ADR leukemia
[72] = tested on: XF 498 CNS

SMILES: CCOC(=O)/C(=C\c1ccccc1)C(=O)CCN1CCOCC1
- TGI [1]: 30.9 µM
- TGI [2]: 10.1 µM
- TGI [3]: 13.4 µM
- TGI [4]: 50.5 µM
- TGI [5]: 11 µM
- TGI [6]: 51.5 µM
- TGI [7]: 9.63 µM
- TGI [8]: 3.43 µM
- TGI [9]: 40.1 µM
- TGI [10]: 9.11 µM
- TGI [11]: 36.5 µM
- TGI [12]: 32.6 µM
- TGI [13]: 18.4 µM
- TGI [14]: 3.95 µM
- TGI [15]: 23.8 µM
- TGI [16]: 21.9 µM
- TGI [17]: 21.6 µM
- TGI [18]: 5.3 µM
- TGI [19]: 9.51 µM
- TGI [20]: 31.8 µM
- TGI [21]: 3.66 µM
- TGI [22]: 38.3 µM
- TGI [23]: 40.5 µM
- TGI [24]: 27.8 µM
- TGI [25]: 33.6 µM
- TGI [26]: 38.3 µM
- TGI [27]: 27.3 µM
- TGI [28]: 42.4 µM
- TGI [29]: 45.9 µM
- TGI [30]: 27.1 µM
- TGI [31]: 39.2 µM
- TGI [32]: 32.5 µM
- TGI [33]: 19.7 µM
- TGI [34]: 30 µM
- TGI [35]: 6.07 µM
- TGI [36]: 3.38 µM
- TGI [37]: 34.7 µM
- TGI [38]: 8.93 µM
- TGI [39]: 6.09 µM
- TGI [40]: 40.8 µM
- TGI [41]: 24.9 µM
- TGI [42]: 11.8 µM
- TGI [43]: 5.19 µM
- TGI [44]: 29.9 µM
- TGI [45]: 33.6 µM
- TGI [46]: 18.6 µM
- TGI [47]: 19.4 µM
- TGI [48]: 3.52 µM
- TGI [49]: 23.1 µM
- TGI [50]: 6.96 µM
- TGI [51]: 25.3 µM
- TGI [52]: 14.6 µM
- TGI [53]: 28.8 µM
- TGI [54]: 7.85 µM
- TGI [55]: 17.2 µM
- TGI [56]: 18 µM
- TGI [57]: 28.6 µM
- TGI [58]: 53.1 µM
- TGI [59]: 4.87 µM
- TGI [60]: 34.9 µM
- TGI [61]: 31.1 µM
- TGI [62]: 25.1 µM
- TGI [63]: 12.5 µM
- TGI [64]: 24.7 µM
- TGI [65]: 31.2 µM
- TGI [66]: 16 µM
- TGI [67]: 19.9 µM
- TGI [68]: 8.54 µM
- TGI [69]: > 100 µM
- TGI [70]: 18.7 µM
- TGI [71]: > 21.7 µM

SMILES: COc1cc(/C=C/C(=O)Oc2ccc(NC(C)=O)cc2)ccc1C(=O)OCc1ccccc1
- TGI [1]: > 100 µM
- TGI [2]: > 100 µM
- TGI [3]: > 100 µM
- TGI [4]: > 92 µM
- TGI [5]: > 100 µM
- TGI [6]: > 91.2 µM
- TGI [7]: > 100 µM
- TGI [8]: > 100 µM
- TGI [9]: > 100 µM
- TGI [10]: > 100 µM
- TGI [11]: > 89.4 µM
- TGI [12]: > 100 µM
- TGI [13]: > 100 µM
- TGI [14]: > 100 µM
- TGI [15]: > 100 µM
- TGI [16]: > 100 µM
- TGI [17]: > 78.7 µM
- TGI [18]: > 100 µM
- TGI [19]: > 100 µM
- TGI [20]: > 100 µM
- TGI [21]: > 100 µM
- TGI [22]: > 89.3 µM
- TGI [23]: > 100 µM
- TGI [24]: > 100 µM
- TGI [25]: > 100 µM
- TGI [26]: 47.6 µM
- TGI [27]: > 100 µM
- TGI [28]: 99.8 µM
- TGI [29]: > 100 µM
- TGI [30]: > 100 µM
- TGI [31]: > 100 µM
- TGI [32]: > 100 µM
- TGI [33]: > 100 µM
- TGI [34]: > 100 µM
- TGI [35]: > 100 µM
- TGI [36]: > 100 µM
- TGI [37]: > 100 µM
- TGI [38]: > 100 µM
- TGI [39]: 58.3 µM
- TGI [40]: > 91.3 µM
- TGI [41]: > 100 µM
- TGI [42]: > 100 µM
- TGI [43]: > 100 µM
- TGI [44]: > 93.2 µM
- TGI [45]: > 100 µM
- TGI [46]: > 100 µM
- TGI [47]: > 100 µM
- TGI [48]: > 100 µM
- TGI [49]: > 100 µM
- TGI [72]: > 70.2 µM
- TGI [50]: > 100 µM
- TGI [51]: > 100 µM
- TGI [52]: > 100 µM
- TGI [54]: > 100 µM
- TGI [55]: > 100 µM
- TGI [56]: > 100 µM
- TGI [57]: > 100 µM
- TGI [58]: > 100 µM
- TGI [59]: > 100 µM
- TGI [60]: > 100 µM
- TGI [61]: > 100 µM
- TGI [62]: > 100 µM
- TGI [63]: > 97.1 µM
- TGI [64]: > 100 µM
- TGI [65]: > 100 µM
- TGI [66]: 60.8 µM
- TGI [67]: > 100 µM
- TGI [68]: > 100 µM
- TGI [69]: > 100 µM
- TGI [70]: > 100 µM
- TGI [71]: > 100 µM
